According to ChEMBL document CHEMBL4602709 (ACS Med Chem Lett, 2020):

How the values were obtained:
[1] = target: Cytochrome P450 3A4 (Homo sapiens, UniProt P08684); assay: Inhibition of human recombinant CYP3A4 expressed in insect cell microsomes in presence of NADPH by fluorescence assay; type: ADME
[2] = target: Voltage-gated inwardly rectifying potassium channel KCNH2 (Homo sapiens, UniProt Q12809); assay: Inhibition of human ERG incubated for 4 hrs by competitive fluorescence tracer binding based assay
[3] = target: Tyrosine-protein kinase ABL1 (Homo sapiens, UniProt P00519); assay: Inhibition of human ABL1 assessed as residual activity using EAIYAAPFAKKK as substrate by [gamma-33P]-ATP assay
[4] = Metabolic stability in mouse liver microsomes assessed as half life at 3 uM measured up to 30 mins in presence of NADPH by […] analysis; type: ADME, Microsome
[5] = target: T1, Mitogen-activated protein kinase kinase kinase kinase 3 (Homo sapiens) (UniProt Q8IVH8); assay: Inhibition of MAP4K3 (unknown origin) assessed as residual activity at 10 uM incubated for 5 mins in presence of [gamma-33ATP] by scintillation counting based radiometry assay relative to control
T1 sequence (whole entry): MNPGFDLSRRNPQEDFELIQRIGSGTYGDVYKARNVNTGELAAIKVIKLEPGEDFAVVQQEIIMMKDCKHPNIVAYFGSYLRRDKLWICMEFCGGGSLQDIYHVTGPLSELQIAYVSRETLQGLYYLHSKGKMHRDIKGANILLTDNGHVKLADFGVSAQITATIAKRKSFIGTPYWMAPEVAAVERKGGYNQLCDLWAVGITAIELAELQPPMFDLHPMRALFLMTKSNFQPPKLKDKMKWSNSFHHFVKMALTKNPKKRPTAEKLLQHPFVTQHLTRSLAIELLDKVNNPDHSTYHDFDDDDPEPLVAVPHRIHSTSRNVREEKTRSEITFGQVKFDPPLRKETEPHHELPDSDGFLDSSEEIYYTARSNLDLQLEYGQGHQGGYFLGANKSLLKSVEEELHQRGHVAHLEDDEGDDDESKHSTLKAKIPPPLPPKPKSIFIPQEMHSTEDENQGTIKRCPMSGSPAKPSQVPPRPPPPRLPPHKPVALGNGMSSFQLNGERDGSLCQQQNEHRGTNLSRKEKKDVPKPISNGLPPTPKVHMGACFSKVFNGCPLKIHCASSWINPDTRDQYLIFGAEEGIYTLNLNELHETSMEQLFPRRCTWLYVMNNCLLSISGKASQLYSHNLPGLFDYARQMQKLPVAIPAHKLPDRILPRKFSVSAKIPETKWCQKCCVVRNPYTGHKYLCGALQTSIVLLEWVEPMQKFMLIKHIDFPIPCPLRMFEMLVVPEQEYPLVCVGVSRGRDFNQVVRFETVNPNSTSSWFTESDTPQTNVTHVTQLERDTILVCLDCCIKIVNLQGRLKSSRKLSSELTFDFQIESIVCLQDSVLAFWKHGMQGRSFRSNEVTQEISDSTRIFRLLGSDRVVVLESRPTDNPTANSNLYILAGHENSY

[6] = target: T2, Ephrin type-B receptor 2 (Homo sapiens) (UniProt P29323); assay: Inhibition of EPHB2 (unknown origin) assessed as residual activity at 10 uM incubated for 5 mins in presence of [gamma-33ATP] by scintillation counting based radiometry assay relative to control
T2 sequence (whole entry): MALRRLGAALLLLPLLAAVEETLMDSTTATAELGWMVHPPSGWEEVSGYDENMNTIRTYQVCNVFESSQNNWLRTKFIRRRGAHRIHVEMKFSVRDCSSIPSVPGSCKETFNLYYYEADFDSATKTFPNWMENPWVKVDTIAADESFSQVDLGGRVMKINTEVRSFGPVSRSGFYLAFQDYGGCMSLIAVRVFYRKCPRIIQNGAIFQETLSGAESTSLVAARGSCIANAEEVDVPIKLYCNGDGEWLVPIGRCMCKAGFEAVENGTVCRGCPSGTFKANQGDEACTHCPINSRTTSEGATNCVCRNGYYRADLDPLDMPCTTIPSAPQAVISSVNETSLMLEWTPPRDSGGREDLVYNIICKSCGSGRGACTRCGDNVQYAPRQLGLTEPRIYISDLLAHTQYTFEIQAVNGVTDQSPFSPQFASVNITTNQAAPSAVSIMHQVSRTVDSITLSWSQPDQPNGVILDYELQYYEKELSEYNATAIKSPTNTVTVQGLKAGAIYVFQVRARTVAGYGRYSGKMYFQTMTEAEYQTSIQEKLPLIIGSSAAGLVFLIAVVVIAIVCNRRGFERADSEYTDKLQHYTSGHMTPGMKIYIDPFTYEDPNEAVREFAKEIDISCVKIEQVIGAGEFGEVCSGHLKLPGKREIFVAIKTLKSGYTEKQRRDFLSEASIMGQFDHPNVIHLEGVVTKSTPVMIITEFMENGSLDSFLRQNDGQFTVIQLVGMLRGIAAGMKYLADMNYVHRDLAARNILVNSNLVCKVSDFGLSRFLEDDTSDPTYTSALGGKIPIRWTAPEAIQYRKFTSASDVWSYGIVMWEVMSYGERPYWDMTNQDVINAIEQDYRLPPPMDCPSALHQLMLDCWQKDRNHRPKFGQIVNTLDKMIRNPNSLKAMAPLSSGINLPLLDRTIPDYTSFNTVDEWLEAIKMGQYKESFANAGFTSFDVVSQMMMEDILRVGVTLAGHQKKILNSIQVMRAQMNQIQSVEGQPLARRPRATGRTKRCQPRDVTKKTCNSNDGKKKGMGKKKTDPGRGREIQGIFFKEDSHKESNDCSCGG

[7] = target: T3, Discoidin domain-containing receptor 2 (Homo sapiens) (UniProt Q16832); assay: Inhibition of DDR2 (unknown origin) assessed as residual activity at 10 uM incubated for 5 mins in presence of [gamma-33ATP] by scintillation counting based radiometry assay relative to control
T3 sequence (whole entry): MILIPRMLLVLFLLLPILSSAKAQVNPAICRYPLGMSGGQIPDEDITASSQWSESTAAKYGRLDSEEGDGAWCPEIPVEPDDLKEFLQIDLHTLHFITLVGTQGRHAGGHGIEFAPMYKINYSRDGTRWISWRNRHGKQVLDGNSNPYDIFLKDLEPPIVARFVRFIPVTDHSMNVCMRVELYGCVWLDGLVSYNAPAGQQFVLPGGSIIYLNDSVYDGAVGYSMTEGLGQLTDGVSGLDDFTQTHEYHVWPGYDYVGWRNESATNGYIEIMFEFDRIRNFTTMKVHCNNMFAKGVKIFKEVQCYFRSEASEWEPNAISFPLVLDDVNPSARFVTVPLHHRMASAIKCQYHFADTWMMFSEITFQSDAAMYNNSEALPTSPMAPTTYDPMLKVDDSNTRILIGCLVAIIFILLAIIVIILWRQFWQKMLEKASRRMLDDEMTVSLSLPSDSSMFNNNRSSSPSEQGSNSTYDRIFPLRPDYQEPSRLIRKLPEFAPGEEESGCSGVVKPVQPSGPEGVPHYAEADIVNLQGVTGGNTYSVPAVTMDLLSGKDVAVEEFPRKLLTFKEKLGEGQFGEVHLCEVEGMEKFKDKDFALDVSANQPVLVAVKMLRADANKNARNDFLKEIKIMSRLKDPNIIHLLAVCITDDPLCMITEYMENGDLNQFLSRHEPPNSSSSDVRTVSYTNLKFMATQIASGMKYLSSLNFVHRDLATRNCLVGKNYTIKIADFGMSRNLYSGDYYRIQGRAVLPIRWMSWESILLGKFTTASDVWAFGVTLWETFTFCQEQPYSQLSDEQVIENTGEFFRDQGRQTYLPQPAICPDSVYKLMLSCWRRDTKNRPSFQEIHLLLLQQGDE

[8] = target: Proto-oncogene tyrosine-protein kinase Src (Homo sapiens, UniProt P12931); assay: Inhibition of SRC (unknown origin) assessed as residual activity at 10 uM incubated for 5 mins in presence of [gamma-33ATP] by scintillation counting based radiometry assay relative to control
[9] = species: Homo sapiens; assay: Inhibition of VEGFR (unknown origin) assessed as residual activity at 10 uM incubated for 5 mins in presence of [gamma-33ATP] by scintillation counting based radiometry assay relative to control
[10] = Metabolic stability in human liver microsomes assessed as half life at 3 uM measured up to 30 mins in presence of NADPH by […] analysis; type: ADME, Microsome
[11] = target: Serine/threonine-protein kinase Nek6 (Homo sapiens, UniProt Q9HC98); assay: Inhibition of NEK6 (unknown origin) assessed as residual activity at 10 uM incubated for 5 mins in presence of [gamma-33ATP] by scintillation counting based radiometry assay relative to control
[12] = target: Tyrosine-protein kinase Lck (Homo sapiens, UniProt P06239); assay: Inhibition of LCK (unknown origin) assessed as residual activity at 10 uM incubated for 5 mins in presence of [gamma-33ATP] by scintillation counting based radiometry assay relative to control
Chain of Tyrosine-protein kinase Lck (P06239 2-509 limits assumed): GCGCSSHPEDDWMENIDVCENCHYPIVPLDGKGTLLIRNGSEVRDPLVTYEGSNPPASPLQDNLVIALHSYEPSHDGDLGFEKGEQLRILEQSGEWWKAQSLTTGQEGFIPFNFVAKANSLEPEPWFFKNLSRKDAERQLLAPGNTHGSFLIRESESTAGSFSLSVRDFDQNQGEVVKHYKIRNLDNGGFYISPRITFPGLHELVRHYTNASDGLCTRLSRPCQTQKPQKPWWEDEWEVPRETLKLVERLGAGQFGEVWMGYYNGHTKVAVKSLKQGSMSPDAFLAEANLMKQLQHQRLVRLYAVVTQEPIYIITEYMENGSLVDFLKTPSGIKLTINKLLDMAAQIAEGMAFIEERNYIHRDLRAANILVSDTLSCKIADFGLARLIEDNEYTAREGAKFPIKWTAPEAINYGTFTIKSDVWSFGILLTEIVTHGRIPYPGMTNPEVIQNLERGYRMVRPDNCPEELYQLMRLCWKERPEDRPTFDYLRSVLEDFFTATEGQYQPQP

Chain of Tyrosine-protein kinase ABL1 (P00519 whole entry): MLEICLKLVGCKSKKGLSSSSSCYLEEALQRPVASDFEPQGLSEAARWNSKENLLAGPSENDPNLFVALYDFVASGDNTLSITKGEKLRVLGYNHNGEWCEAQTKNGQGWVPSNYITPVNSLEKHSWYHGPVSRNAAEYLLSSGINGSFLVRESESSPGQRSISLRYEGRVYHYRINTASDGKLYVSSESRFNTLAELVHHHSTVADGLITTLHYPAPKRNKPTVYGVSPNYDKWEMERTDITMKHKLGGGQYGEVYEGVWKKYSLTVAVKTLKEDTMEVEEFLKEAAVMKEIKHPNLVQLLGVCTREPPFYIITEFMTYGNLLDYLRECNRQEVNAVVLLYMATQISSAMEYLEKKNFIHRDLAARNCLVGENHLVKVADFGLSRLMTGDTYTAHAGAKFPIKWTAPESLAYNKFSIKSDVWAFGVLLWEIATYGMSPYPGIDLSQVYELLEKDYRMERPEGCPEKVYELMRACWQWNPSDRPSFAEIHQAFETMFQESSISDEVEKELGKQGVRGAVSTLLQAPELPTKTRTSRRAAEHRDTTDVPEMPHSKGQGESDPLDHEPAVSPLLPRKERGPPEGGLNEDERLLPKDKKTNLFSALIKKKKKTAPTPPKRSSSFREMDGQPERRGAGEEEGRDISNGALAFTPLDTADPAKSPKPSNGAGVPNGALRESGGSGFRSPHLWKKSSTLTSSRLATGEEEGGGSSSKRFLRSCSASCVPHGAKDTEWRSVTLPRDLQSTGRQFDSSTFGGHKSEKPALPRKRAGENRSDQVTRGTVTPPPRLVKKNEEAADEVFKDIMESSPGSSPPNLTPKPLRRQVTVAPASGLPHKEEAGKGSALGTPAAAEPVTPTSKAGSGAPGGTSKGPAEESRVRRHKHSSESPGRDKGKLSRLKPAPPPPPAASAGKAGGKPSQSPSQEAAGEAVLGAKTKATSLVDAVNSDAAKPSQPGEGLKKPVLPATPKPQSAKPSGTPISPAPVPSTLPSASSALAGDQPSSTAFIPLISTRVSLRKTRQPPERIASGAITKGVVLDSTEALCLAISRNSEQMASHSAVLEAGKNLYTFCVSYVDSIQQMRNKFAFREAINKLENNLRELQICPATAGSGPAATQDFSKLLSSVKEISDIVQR
Chain of Voltage-gated inwardly rectifying potassium channel KCNH2 (Q12809 whole entry): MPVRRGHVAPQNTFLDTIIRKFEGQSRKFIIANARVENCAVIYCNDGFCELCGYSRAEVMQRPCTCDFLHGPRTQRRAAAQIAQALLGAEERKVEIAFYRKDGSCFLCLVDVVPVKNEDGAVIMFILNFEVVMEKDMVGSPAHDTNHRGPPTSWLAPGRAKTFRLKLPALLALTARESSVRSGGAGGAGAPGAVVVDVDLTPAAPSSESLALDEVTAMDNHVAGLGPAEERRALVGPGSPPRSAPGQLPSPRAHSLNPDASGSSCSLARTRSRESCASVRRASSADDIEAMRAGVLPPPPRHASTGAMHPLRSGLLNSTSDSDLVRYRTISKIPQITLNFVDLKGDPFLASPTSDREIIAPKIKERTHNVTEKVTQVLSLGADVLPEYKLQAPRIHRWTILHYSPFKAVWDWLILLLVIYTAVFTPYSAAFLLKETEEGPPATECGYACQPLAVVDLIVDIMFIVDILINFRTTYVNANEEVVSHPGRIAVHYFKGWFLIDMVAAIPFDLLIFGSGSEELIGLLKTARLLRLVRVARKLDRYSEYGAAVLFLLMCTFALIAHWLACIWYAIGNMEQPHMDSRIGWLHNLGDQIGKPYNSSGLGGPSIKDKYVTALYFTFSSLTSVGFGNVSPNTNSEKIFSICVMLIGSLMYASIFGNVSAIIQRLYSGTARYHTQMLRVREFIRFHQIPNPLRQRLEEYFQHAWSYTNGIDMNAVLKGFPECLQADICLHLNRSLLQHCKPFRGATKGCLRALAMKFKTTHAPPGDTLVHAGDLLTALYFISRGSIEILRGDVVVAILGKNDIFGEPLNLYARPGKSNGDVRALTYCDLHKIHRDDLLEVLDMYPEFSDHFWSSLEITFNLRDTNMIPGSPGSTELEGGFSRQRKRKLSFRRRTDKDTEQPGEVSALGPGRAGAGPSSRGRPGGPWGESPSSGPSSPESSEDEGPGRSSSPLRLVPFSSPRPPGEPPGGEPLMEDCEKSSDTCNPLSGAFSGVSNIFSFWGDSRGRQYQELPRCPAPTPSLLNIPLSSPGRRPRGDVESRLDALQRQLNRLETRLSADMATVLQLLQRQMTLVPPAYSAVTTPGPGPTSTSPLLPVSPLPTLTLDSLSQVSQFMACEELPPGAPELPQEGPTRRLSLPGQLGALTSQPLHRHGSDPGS
Chain of Cytochrome P450 3A4 (P08684 whole entry): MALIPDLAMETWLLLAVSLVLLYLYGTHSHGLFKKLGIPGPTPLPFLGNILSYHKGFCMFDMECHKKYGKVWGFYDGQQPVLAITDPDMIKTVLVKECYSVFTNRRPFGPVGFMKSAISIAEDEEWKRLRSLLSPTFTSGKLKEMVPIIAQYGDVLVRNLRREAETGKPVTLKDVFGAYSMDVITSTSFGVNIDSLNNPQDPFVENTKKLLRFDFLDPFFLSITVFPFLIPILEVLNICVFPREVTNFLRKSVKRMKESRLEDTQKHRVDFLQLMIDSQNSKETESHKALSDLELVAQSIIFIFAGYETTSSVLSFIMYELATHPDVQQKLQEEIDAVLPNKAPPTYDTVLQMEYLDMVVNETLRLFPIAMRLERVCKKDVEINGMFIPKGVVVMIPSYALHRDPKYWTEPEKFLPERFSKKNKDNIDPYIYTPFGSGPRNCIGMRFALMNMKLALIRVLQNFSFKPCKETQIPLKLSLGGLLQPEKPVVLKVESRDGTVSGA
Chain of Serine/threonine-protein kinase Nek6 (Q9HC98 whole entry): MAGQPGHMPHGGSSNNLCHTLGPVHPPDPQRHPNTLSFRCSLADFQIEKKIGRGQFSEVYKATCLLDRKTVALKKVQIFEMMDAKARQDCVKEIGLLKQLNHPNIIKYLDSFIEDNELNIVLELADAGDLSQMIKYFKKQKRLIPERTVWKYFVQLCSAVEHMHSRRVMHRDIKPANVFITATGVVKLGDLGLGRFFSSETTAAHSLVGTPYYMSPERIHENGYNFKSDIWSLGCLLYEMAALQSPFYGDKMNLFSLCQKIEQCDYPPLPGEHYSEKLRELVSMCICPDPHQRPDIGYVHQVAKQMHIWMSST
Chain of Proto-oncogene tyrosine-protein kinase Src (P12931 2-536 limits assumed): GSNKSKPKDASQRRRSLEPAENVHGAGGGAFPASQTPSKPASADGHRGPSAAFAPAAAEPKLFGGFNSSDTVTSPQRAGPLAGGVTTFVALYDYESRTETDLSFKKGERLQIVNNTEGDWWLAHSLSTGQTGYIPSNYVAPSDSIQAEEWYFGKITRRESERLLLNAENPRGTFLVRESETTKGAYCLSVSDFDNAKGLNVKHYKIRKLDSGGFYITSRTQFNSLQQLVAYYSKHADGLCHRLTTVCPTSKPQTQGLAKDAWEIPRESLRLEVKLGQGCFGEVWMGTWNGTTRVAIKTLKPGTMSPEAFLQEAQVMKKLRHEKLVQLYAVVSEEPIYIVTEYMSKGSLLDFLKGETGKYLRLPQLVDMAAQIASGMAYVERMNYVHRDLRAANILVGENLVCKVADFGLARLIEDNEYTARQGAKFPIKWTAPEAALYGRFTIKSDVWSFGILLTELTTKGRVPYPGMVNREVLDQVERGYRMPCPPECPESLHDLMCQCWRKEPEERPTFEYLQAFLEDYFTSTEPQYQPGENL

SMILES | IC50 [1] [µM] | IC50 [3] [µM] | half-life at 3 µM [4] [h] | half-life at 3 µM [10] [h] | IC50 [2] [µM] | further results
Cc1ccc(C(=O)Nc2ccc(CN3CCN(C)CC3)c(C(F)(F)F)c2)cc1C#Cc1cnc2cccnn12 [PONATINIB] |  |  | 0.532 | 3.04 |  | Activity [5]: 2%; Activity [6]: 2%; Activity [7]: 3%; Activity [8]: 11%; Activity [9]: 28%; Activity [11]: 52%; Activity [12]: 29%
Cc1ccc(C(=O)Nc2ccc(CN3Cc4ccc(O)cc4C3)c(Cl)c2)cc1C#Cc1cnc2cccnn12 |  | > 0.03 | 0.441 | 2.63 |  | 

The next lines start with results.

IC50 [1] [µM] | IC50 [3] [µM] | half-life at 3 µM [4] [h] | half-life at 3 µM [10] [h] | SMILES | IC50 [2] [µM] | further results
13.5 |  |  |  | COCCN1CCN(Cc2ccc(NC(=O)c3ccc(C)c(C#Cc4cnc5cccnn45)c3)cc2C2CC2)CC1 | 0.08 | 
13.4 | 0.00039 |  |  | Cc1ccc(C(=O)Nc2ccc(CN3CCN(CCO)CC3)c(Cl)c2)cc1C#Cc1cnc2cccnn12 | 0.1 | 
 | 0.0003 |  |  | Cc1ccc(C(=O)Nc2ccc(CN3CCN(CCO)CC3)c(C3CC3)c2)cc1C#Cc1cnc2cccnn12 | 0.34 | 
